US20080125477A1, “7-(ACRYLOYL) INDOLE COMPOSITIONS AND METHODS OF MAKING AND USING SAME” (DECODE GENETICS, EHF., priority 2006, published 2008)
Converted amounts (≈) assume the structure as drawn.

Experiments:
[1] = target: T1, prostanoid hEP3 receptors (Homo sapiens, UniProt P43115); experiment: binding on prostanoid hEP3 receptors
T1 sequence (P43115 1-390): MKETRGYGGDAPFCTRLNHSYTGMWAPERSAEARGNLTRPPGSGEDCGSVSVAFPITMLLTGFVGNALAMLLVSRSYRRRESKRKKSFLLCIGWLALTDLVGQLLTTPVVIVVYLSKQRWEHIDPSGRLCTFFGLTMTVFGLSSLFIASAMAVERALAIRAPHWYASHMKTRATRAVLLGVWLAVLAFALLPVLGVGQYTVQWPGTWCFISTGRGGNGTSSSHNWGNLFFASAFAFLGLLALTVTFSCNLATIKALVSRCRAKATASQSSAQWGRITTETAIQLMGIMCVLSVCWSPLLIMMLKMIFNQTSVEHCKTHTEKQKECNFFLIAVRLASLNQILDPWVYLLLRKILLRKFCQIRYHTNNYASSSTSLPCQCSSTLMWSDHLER
Protocol: DTSI and related compounds were assayed for binding on prostanoid hEP3 receptors according to the method of Abramovitz et al [Bioch. Biophys.

human platelets = experiment: platelet aggregation in vitro, human platelets; type: cell-based; details: agonist Sulprostone (100 nM) and collagen (0.125 ug.mL), Serum % 100
Protocol: (§1) DTSI and related compounds were assayed for their effect on platelet aggregation in vitro. In experiments with human platelets, whole blood was extracted from overnight-fasted human donors. Each experiment was performed with blood from a single individual. In experiments with rodent platelets, whole blood was gathered from the heart of female mice or male rats under isofluran (Abbott) anaesthesia. Blood was pooled from two or ten individual rodents for each experiment in the case of rat and mouse experiments, respectively. In all cases, blood was collected into 3.8% sodium citrate tubes (Greiner Bio-one). Platelet-rich plasma (PRP) was obtained by centrifugation at 100×g for 15 min at 25° C. for humans, at 150×g for rats, or at 80×g for 10 min for mice. Platelet-poor plasma was obtained by centrifugation of the remaining blood at 2,400×g for 10 min at 25° C. After counting in an Autocounter (Model 920 EO, Swelab) platelets were diluted when necessary to the desired stock concentrations (200,000-300,000 platelets/μl) using 0.9% NaCl isotonic solution (Braun).
(§2) Platelet aggregation was determined by light absorbance using a platelet aggregometer with constant magnetic stirring (Model 490, Chronolog Cop., Havertown, Pa., USA), using a volume of 500 μl per cuvette. […] IC50 values were calculated using GraphPad Prism 3.02 for Windows (GraphPad Software, San Diego, Calif. USA). […]

rodent platelets (rat) = experiment: platelet aggregation in vitro, rat platelets; type: cell-based; details: agonist Sulprostone (100 nM) and collagen (2.0 ug.mL), Serum % 20
Protocol: as §1, §2

[2] = aqueous solubility of micronized DTSI in surfactant/amine solutions; type: physicochemical; details: for solubility at 60 min: thermodynamic from solid, micronized DTSI
Protocol: The solubility of DTSI in aqueous PEG, cyclodextrins, glycerides and other solvent systems was evaluated. Excess amount of the DTSI was added to the aqueous compatible/complexation media, the suspension formed was sonicated for 60 minutes (and also heated up to 75° C. e.g. for cyclodextrins). The suspensions at room temperature were filtered and the amount of dissolved drug was determined by HPLC.

[3] = system: pulmonary thromboembolism by arachidonic acid; experiment: pulmonary thromboembolism assay (platelet aggregation in vivo); details: 100 mg/kg orally, 30 min before arachidonic acid 30 mg/kg i.v.; survival one hour after challenge
Protocol: DTSI was also assayed for its effects on platelet aggregation in vivo. […] For the pulmonary thromboembolism assay, conscious female C57BL/6 mice were dosed orally with the test compounds and 30 min later thromboembolism was induced by injection of arachidonic acid into a tail vein at a dose of 30 mg per kg body weight. Survival was evaluated one hour after the challenge with arachidonic acid, as mice that survive for that length of time usually recovered fully. The arachidonic acid injection was given via a lateral tail vein in a mouse that had been warmed briefly under a heat lamp (dilation of the tail veins using heat facilitates placing the injection). An insulin syringe, 0. 5 mL (from Becton Dickinson) was used for dosing. The dose volume given of both the test compound and the arachidonic acid was adjusted to the weight of the mouse (the dose volume p.o. for test compounds and i.v. for arachidonic acid solution was 10 μL and 5 μL per gram body weight, respectively).

Cc1cn(Cc2ccc(Cl)cc2Cl)c2c(/C=C/C(=O)NS(=O)(=O)c3cc(Cl)c(Cl)s3)cc(F)cc12 [DTSI, 4,5-dichlorothiophene-2-sulfonic acid [(E)-3-[1-(2,4-dichlorophenylmethyl)-5-fluoro-3-methyl-1H-indol-7-yl]-acryloyl]amide]
EP3 receptor antagonism (in words) [1]: potent, selective EP3 receptor antagonist | IC50 (human platelets): 218 nM | IC50 (rodent platelets (rat)): 83 nM | aqueous solubility (in words) [2]: poor | solubility at 60 min ([2]; aqueous solution of 5% Cremophor RH40, aqueous with cosolvent or surfactant or cyclodextrin, 5% Cremophor RH40): 170 µg/mL (≈ 0.287 mM) | solubility at 60 min ([2]; aqueous solution of 5% Cremophor RH40 and 1% diethanolamine, aqueous with cosolvent or surfactant or cyclodextrin, 5% Cremophor RH40 and 1% diethanolamine): 22700 µg/mL (≈ 38.3 mM) | solubility at 60 min ([2]; aqueous solution of 5% Cremophor RH40 and 1% ethanolamine, aqueous with cosolvent or surfactant or cyclodextrin, 5% Cremophor RH40 and 1% ethanolamine): 8900 µg/mL (≈ 15 mM) | solubility at 60 min ([2]; aqueous solution of 5% Cremophor RH40 and 1% triethanolamine, aqueous with cosolvent or surfactant or cyclodextrin, 5% Cremophor RH40 and 1% triethanolamine): 8300 µg/mL (≈ 14 mM) | solubility at 60 min ([2]; aqueous solution of 5% Cremophor RH40 and 1% tromethamine, aqueous with cosolvent or surfactant or cyclodextrin, 5% Cremophor RH40 and 1% tromethamine): 8700 µg/mL (≈ 14.7 mM) | solubility at 60 min ([2]; aqueous solution of 5% Vitamin E TPGS and 1% choline, aqueous with cosolvent or surfactant or cyclodextrin, 5% Vitamin E TPGS and 1% choline): 46600 µg/mL (≈ 78.7 mM) | solubility at 60 min ([2]; aqueous solution of 5% Vitamin E TPGS and 1% diethanolamine, aqueous with cosolvent or surfactant or cyclodextrin, 5% Vitamin E TPGS and 1% diethanolamine): 20400 µg/mL (≈ 34.4 mM) | solubility at 60 min ([2]; aqueous solution of 5% Vitamin E TPGS and 1% ethanolamine, aqueous with cosolvent or surfactant or cyclodextrin, 5% Vitamin E TPGS and 1% ethanolamine): 19200 µg/mL (≈ 32.4 mM) | solubility at 60 min ([2]; aqueous solution of 5% Vitamin E TPGS and 1% triethanolamine, aqueous with cosolvent or surfactant or cyclodextrin, 5% Vitamin E TPGS and 1% triethanolamine): 9200 µg/mL (≈ 15.5 mM) | solubility at 60 min ([2]; aqueous solution of 5% Vitamin E TPGS and 1% tromethamine, aqueous with cosolvent or surfactant or cyclodextrin, 5% Vitamin E TPGS and 1% tromethamine): 8500 µg/mL (≈ 14.4 mM) | solubility at 60 min ([2]; aqueous solution of 5% Vitamin E TPGS and 5% diethanolamine, aqueous with cosolvent or surfactant or cyclodextrin, 5% Vitamin E TPGS and 5% diethanolamine): 58500 µg/mL (≈ 98.8 mM) | solubility at 60 min ([2]; aqueous solution of 5% Vitamin E TPGS, aqueous with cosolvent or surfactant or cyclodextrin, 5% Vitamin E TPGS): 100 µg/mL (≈ 0.169 mM) | solubility at 60 min ([2]; aqueous with cosolvent or surfactant or cyclodextrin, 5% Vitamin E TPGS and 0.5% diethanolamine): 15600 µg/mL (≈ 26.3 mM) | Survival rate [3]: 68%
